Patent US20130156869A1, “PHARMACEUTICAL COMPOSITION FOR THE TREATMENT OF ALZHEIMER'S DISEASE, METHOD FOR PRODUCING SAME AND USE THEREOF” (Funddacao Arnaldo Vieira de Carvalho, priority 2010, published 2013)

Tested on: patients diagnosed with Alzheimer's disease
Test: Mini Mental State Examination (MMSE) performed quarterly in a blinded, placebo-controlled study of lithium microdoses
Assay type: in vivo, human
Description: Patients clinically diagnosed with Alzheimer's disease by the DSM-IV and NINCDS-ADRDA criteria, and under treatment. The patients were selected by the Mini Mental State Examination (MMSE), which is a questionnaire asked to the patient at each visit, which has a maximum score of 30 points. The Mini-Mental State Examination (MMSE) was designed to be a clinical practice assessment of change in the cognitive status in geriatric patients (Folstein et al, 1975). It examines temporal and spatial orientation, short-term memory (or immediate attention) and recall, calculation, apraxia, and language and visual-spatial skills. It can be used as a screening test for cognitive impairment or as a cognitive assessment of bedside. The Portuguese version of the MMSE (Bertolucci et al, 1994) was considered reliable and adequate for screening and monitoring of ambulatory elderly (Lawrence et al, 2008).
The MMSE includes 11 items, divided into 2 sections. The first requires verbal answers to questions of orientation, memory and attention, the second to questions of reading and writing skills, and it evaluates the skills of appointment, follow verbal and written commands, writing a sentence and copying a drawing (polygons) (Folstein et al, 1975). The cutoff point most often used to indicate a cognitive impairment that deserves further investigation is 24. […] The cutoff point is often adjusted for the education level because a single cut can lose cases among persons with more education, and generate false positives among those with less education. […] Some Brazilian authors studied the measuring characteristics of the scale. Thus, to evaluate the cognitive performance of a population seeking medical screening service of a hospital, Bertolucci applied the MMSE in 530 individuals. We found distinct cutoff points for the diagnosis of cognitive decline, according to the level of education: 13 for illiterates, 18 for low and middle levels of education and 26 for high level of education, with a sensitivity of 82.4%, 75.6% and 80%, and specificity of 97.5%, 96.6% and 95.6%, respectively (Bertolucci et al, 1994). The MMSE was the parameter chosen for inclusion and monitoring of patients of the search for being a test performed on all patients in this clinic and for being a cognitive assessment scale that is practical and useful in the investigation of patients with dementia risk, as in the case of elderly (Almeida, 1998), and it is prescriptive by use and the criteria for dispensing medications adopted by the Ministry of Health. The fact that all medical professionals involved in the evaluation of patients are fully trained and qualified in applying the MMSE was also relevant for this choice. The inclusion of a second test could generate a methodological error that is not measurable. The patients were diagnosed by a neurologist, psychiatrist or geriatrician as suffering from dementia due to Alzheimer's disease, according to the criteria previously mentioned. Patients must present MMSE score equal to or greater than 12 for patients over 4 years of education and greater than or equal to 9 for patients with up to 4 years of education. (Almeida, 1998).
In this preferred embodiment of the invention, the drug tested was the lithium gluconate in a dose of 8.140 mg in 2 mL of solution, which corresponds to 0.28 mg or 0.04 mMol of the metal administered sublingually. Two presentations were used: one containing the lithium gluconate and other containing placebo (anhydrous glucose and purified water). Both presentations were differentiated by a label existing in a group, placebo or lithium, unknown by researchers and by the executors of the MMSE. The patients were selected in a blinded fashion in both groups, with and without stamp by attendance order, being the first with the seal, alternating until the last patient. Formulations were also evaluated with lithium carbonate, respecting the dose of 0.28 mg of metal per dose. […]

## O=C([O-])[C@H](O)[C@@H](O)[C@H](O)[C@H](O)CO.[Li+] [Lithium, lithium gluconate]
61-70 years, F1,62=8.487, p=0.0053, Bonferroni test not significant
  MMSE scores vs control by age group: significant differences in the treatment factor
71-80 years, treatment factor F1,302=29.6, p<0.0001
  MMSE scores vs control by age group: stable maintenance of these values
>80 years, treatment factor F1,225=19.53, p<0.0001
  MMSE scores vs control by age group: better scores on the MMSE compared to control subjects
All participants, six quarters, treatment factor F1,614=65.81, p<0.0001 vs control
  Evolution of MMSE scores in quarterly reviews: maintenance of these scores
First quarter of treatment, 0.28 mg lithium metal per dose, sublingual, P<0.01 vs control
  MMSE score: 20.57±0.66
Quarter 0, immediately before inclusion in the protocol (baseline), n=56, P=0.17 vs control
  MMSE score: 19±0.63
Quarter 5 (end of study), 0.28 mg lithium metal per dose, sublingual, P<0.001 vs control
  MMSE score: 20±0.9
Treated men vs treated women, p=0.4448 and p=0.9786
  Influence of gender on MMSE scores in the treated group: no significant differences in treatment and time factors
